How the values were obtained:
[1] = test system: Wistar rats; experiment: Acute toxicity and tolerance (MTD) of a single oral dose in Wistar rats; assay type: in vivo, rat
Experimental: (§1) The maximum tolerated dose (MTD) of orally administered 1,3-DMPA and 1,4-DMPA was determined in New Zealand white rabbits and Wistar rats.
(§2) Determination of MTD of orally-administered 1,3-DMPA in Wistar rats: The same general methods and procedures were followed as described above. This study involved forty animals randomly divided into four groups of ten animals (five male, five female) in each group. […] The MTD of a single oral dose of 1,3-DMPA was determined to be between 125 mg/kg and 250 mg/kg.
as §2, with “1,4-DMPA” for “1,3-DMPA”, “group. The groups were treated as follows: Group I (vehicle control—water), Group II (75 mg/kg), Group III (150 mg/kg), and Group IV (300 mg/kg). […] Gross pathological changes were not observed in the treated groups during necropsy.” for “group.”, “150” for “125”, “300 mg/kg in Wistar rats.” for “250 mg/kg.”

[2] = as above; assay type: in vivo, rat; conditions: both sexes, Wistar, in vivo; rat, single oral dose
Experimental: as §1, §2
as §2, with “1,4-DMPA” for “1,3-DMPA”, “group. The groups were treated as follows: Group I (vehicle control—water), Group II (75 mg/kg), Group III (150 mg/kg), and Group IV (300 mg/kg). […] Gross pathological changes were not observed in the treated groups during necropsy.” for “group.”, “150” for “125”, “300 mg/kg in Wistar rats.” for “250 mg/kg.”

[3] = test system: human(s); experiment: Comparative effects of 1,3-DMPA and 1,4-DMPA compounds in humans (self-administration); assay type: in vivo; conditions: male, 40 mg daily in a dietary supplement containing caffeine, at least seven days
Experimental: The compounds 1,3-DMPA, racemic 1,4-DMPA, (R)-1,4-DMPA, and (S)-1,4-DMPA were administered to human(s). A non-smoking person of normal weight ingested 40 mg 1,3-DMPA as part of a dietary supplement (dietary ingredients: arginine α-ketoglutarate, creatine monohydrate, β-alanine, caffeine, 1,3-dimethylpentylamine HCL, schisandra cinensis (berry) extract (standardized for schizandrol A)); powder form), self-administered daily for at least seven days. […] To compare the effects of 1,3-DMPA to the effects of 1,4-DMPA, this individual later ingested 1,4-DMPA (racemic) for at least seven days at a dose of 60 mg per day, combined with 250 mg caffeine.
To compare the effects of (R)-1,4-DMPA, and (S)-1,4-DMPA, the individual described above ingested each enantiomer separately. Starting dose was ˜20 mg per day, which was increased to 30 mg per day if treatment was continued. Doses were combined with 250 mg caffeine as described above. […] The dose was increased to 30 mg per day; the total duration of treatment was at least three weeks. […] Ingestion of (S)-1,4-DMPA (25-30 mg per day) with caffeine produced different effects. […] The individual ceased self-administering (S)-1,4-DMPA after several days of experiencing the latter effects.

[4] = test system: cats and dogs; conditions: early animal studies; cited from earlier work
[5] = test system: humans; conditions: cited from earlier work
[6] = test system: New Zealand white rabbits; experiment: Acute toxicity and tolerance (MTD) of a single oral dose in New Zealand white rabbits; assay type: in vivo, rabbit
Experimental: as §1
(§3) Determination of MTD of orally-administered 1,3-DMPA in New Zealand white rabbits: Twenty-four rabbits (twelve male, twelve female) were quarantined for at least seven days and then were randomly divided into four groups with six animals (3 male and 3 female) in each group. […] Animals were observed daily for fourteen days following administration. Each animal's body weight, food intake, mortality, and natural orifices were monitored. Clinical observations included skin condition, gait, movement, neurological disorders, eye condition, feces, convulsions, tremors, activity rate, restlessness, grooming, sleep, aggressiveness, salivation, diarrhea, respiration, appetite, thirst and urine conditions. Other observations included fur condition, mucous membranes, presence or absence of secretions and excretions and autonomic activity, lacrimation, piloerection, pupil size, posture, arched back, distended abdomen, fur, mucous membrane, presence or absence of secretions, tail elevation, motor activity, urination and defecation, and response to handling as well as the presence of clonic or tonic movements, repetitive circling, bizarre behavior, self-mutilation and walking backwards. At the conclusion of the fourteen day monitoring period, gross pathological examination was carried out on all animals. Heart, lung, liver, kidneys, spleen, stomach, large intestine, small intestine, brain and skin were examined for any macroscopic lesions.
(§4) Determination of MTD of orally-administered 1,4-DMPA in New Zealand white rabbits: Thirty rabbits (fifteen male, fifteen female) were quarantined for at least seven days and then were randomly divided into five groups with six animals (3 male and 3 female) in each group. […] Animals were observed daily for fourteen days following administration. Each animal's body weight, food intake, mortality, and natural orifices were monitored. As above, clinical observations included observation of natural orifices for any abnormal secretions and monitoring for the presence or absence of secretions and excretions, monitoring of mucous membranes, fur and skin condition, mortality, gait, posture, arched back, distended abdomen, movement and motor activity, neurological disorders, eye condition and pupil size, feces, convulsions, tremors, tail elevation, activity rate, restlessness, grooming, sleep, aggressiveness, salivation, diarrhea, respiration, appetite, thirst and urine conditions, autonomic activity, lacrimation, piloerection, response to handling, as well as the presence of clonic or tonic movements, repetitive circling, bizarre behavior, self-mutilation and walking backwards. At the conclusion of the fourteen day monitoring period, gross pathological examination was carried out on all animals. Heart, lung, liver, kidneys, spleen, stomach, large intestine, small intestine, brain and skin were examined for any macroscopic lesions.

[7] = as above; assay type: in vivo, rabbit; conditions: both sexes, New Zealand white, in vivo; rabbit, single oral dose
Experimental: as §1, §3, §4

CCC(C)CC(C)N (centres unmarked) [1,3-DMPA, 1,3-dimethylpentylamine, reference compound]
additional clinical signs ([1]; rat, 250 mg/kg oral): tremors
food intake ([1]; rat, 250 mg/kg oral): decreased food intake on Day 3
necropsy analysis ([1]; rat, 250 mg/kg oral, preterminal mortality): hyperemia in the stomach glandular mucosa; congestion of lungs, liver and adrenals; the presence of blood clots in the cranial cavity; and ballooning of the small intestine with reddish yellow fluid
mortality ([1]; rat, 250 mg/kg oral, ten animals per group, within 26 hours of dosing): One preterminal mortality
mean body weight ([1]; rat, 50, 125, 250 mg/kg oral, all treatment groups): consistent increase
mean food intake ([1]; rat, 50 and 125 mg/kg oral): normal
mortality ([1]; rat, 50 and 125 mg/kg oral (lower dose groups)): no mortalities
clinical signs ([1]; rat, all treatment groups 50, 125, 250 mg/kg oral): piloerection, tail elevation, nasal discharge and hyperactivity
LD50 at 14 days [2]: 482 mg/kg
MTD at 14 days [2]: 125 to 250 mg/kg
CNS stimulation [3]: CNS stimulation, including feelings of restlessness and jitteriness
appetite [3]: decreased appetite
heart rate [3]: increased heart rate
mood [3]: improved mood
physical performance during exercise and strength training [3]: improved physical performance
vasopressor activity [4]: exhibit vasopressor or vasoconstriction activity
vasopressor effects ([5]; acute oral administration in humans): vasopressor effects similar to the effects of caffeine
glycerol and free fatty acid concentration (markers of lipolysis) ([5]; humans, following exercise): increased levels of these markers of lipolysis
blood pressure ([5]; humans): increase blood pressure to a modest degree
heart rate and circulating catecholamines (norepinephrine and epinephrine) ([5]; humans): no effect on heart rate or on circulating catecholamines
norepinephrine levels ([5]; humans): no effect on norepinephrine levels
gross pathological observations ([6]; rabbit, 50 mg/kg or 150 mg/kg oral): no changes
behavioral observations ([6]; rabbit, 50 mg/kg oral): did not exhibit any behavioral aberrations
clinical signs ([6]; rabbit, 150 mg/kg oral, a few animals, hours 1-6 after administration): tremors
clinical signs ([6]; rabbit, 300 mg/kg oral): nasal discharge, salivation, tremors, convulsions and tachycardia
gross necropsy of animals that died ([6]; rabbit, 300 mg/kg oral): reddish discoloration in the lungs, multiple watery cyst on the right median lobe of the liver and focal white patches
mortality ([6]; rabbit, 300 mg/kg oral, six animals per group, within four hours after dosing): four animals in this group died
mean body weight ([6]; rabbit, 50, 150, 300 mg/kg oral, 14-day study period): consistent increase
mean food intake ([6]; rabbit, 50, 150, 300 mg/kg oral, study period): normal
food intake ([6]; rabbit, treatment groups 50-300 mg/kg, first observations following treatment): initial decrease in food intake
LD50 at 14 days [7]: 324 mg/kg
MTD at 14 days [7]: 150 to 300 mg/kg

Source: patent US20140080847A1, “Compositions and Methods for Affecting Energy Balance, Body Composition, Fitness, and Well-Being” (OEJM Products Holdings, LLC, priority 2012, published 2014)
